Experimental data from patent US4166859A, “2-Bromo-6-fluoro-N-(2-imidazolidinylidene)-benzamine and salts thereof and the use to treat hypertension” (Boehringer Ingelheim GmbH, priority 1976, dated 1979).
Where a name gives a salt, the structure may show the parent alone.

Key:
[1] = Hygroscopicity of acid addition salts; type: physicochemical
blood pressure = experiment: Hypotensive activity (blood pressure reduction) in rabbits under urethane anesthesia, i.v.; type: in vivo; details: for ED (20 mm Hg): Oryctolagus cuniculus, iv, urthane anesthesia, dose producing lasting reduction of 20 mm Hg of blood pressure, arteria carotis, read-out: Hypotensive ED20 in rabbits
Description: The hypotensive activity of the test compounds was determined on a statistically significant number of rabbits under urthane anesthesia. The blood pressure of the test animals was continuously measured in the arteria carotis by means of a mercury manometer before and after the i.v. administration of the test compound at varying dosage levels. The ED20 was determined, that is, the dose which produced a lasting reduction of 20 mm Hg of the blood pressure.

pKa-value = type: physicochemical
[2] = Stomach juice secretion inhibition, method of Shay et al; details: rat, in vivo; dose reducing volume of stomach juice secreted by 50% and total acidity by 50%; measure of dryness of the mouth; read-out: Stomach juice secretion inhibiting ED50 in rats
Description: The effect on the stomach juice secretion was determined on rats by the standard test method of Shay et al, Gastroenterology 5, 43 (1943), and the ED50 was calculated for each test compound, that is, the dose which reduces the volume of stomach juice secreted over a given amount of time by 50%, and at the same time produces a 50% reduction in the total acidity of the secreted stomach juice volume.

SMILES	hygroscopicity [1]	also measured
Fc1cccc(Br)c1N=C1NCCN1 [Nitrate]	slightly hygroscopic	
Fc1cccc(Br)c1N=C1NCCN1 [Benzoate]	slightly hygroscopic	
Clc1cccc(Cl)c1NC1=NCCN1 [clonidine, 2-(2,6-dichloroanilino)-2-imidazoline]		antihypertensive efficacy relative to the invention compound (blood pressure; comparison with 2-bromo-6-fluoro-N-(2-imidazolidinylidene)-benzamine): equal antihypertensive efficacy
Fc1cccc(Br)c1N=C1NCCN1 [Tartrate]	hygroscopic	
Fc1cccc(Br)c1NC1=NCCN1 [2-bromo-6-fluoro-N-(2-imidazolidinylidene)-benzamine monohydrochloride]		pKa (pKa-value): 8.2; ED50 [2]: 0.1 mg/kg; ED (20 mm Hg) (blood pressure): 0.01 mg/kg
Clc1cccc(Cl)c1NC1=NCCN1 [Clonidine . HCl, 2-(2,6-dichloroanilino)-2-imidazoline, reference compound]		ED50 [2]: 0.04 mg/kg; ED (20 mm Hg) (blood pressure): 0.01 mg/kg
Fc1cccc(Br)c1N=C1NCCN1 [Methanesulfonate]	hygroscopic	
Fc1cccc(Br)c1N=C1NCCN1 [Citrate]	hygroscopic	
Fc1cccc(Br)c1N=C1NCCN1 [Oxalate]	hygroscopic	
Fc1cccc(Br)c1N=C1NCCN1 [Hydrobromide]	hygroscopic	
Fc1cccc(Br)c1N=C1NCCN1 [Tosylate]	hygroscopic	
